We go through 8 compounds from PubChem BioAssay (NCI).

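Compound exposure: 48 hours, 5 concentrations, 96-well plates. The concentration for 50% growth inhibition is given as GI50. TGI is the concentration that stops growth completely.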

What all share (assay): DTP human tumour cell line panel, 48 h
The test system of assay [1] is COLO 205 colon.
Assay [2] relates to OVCAR-8 ovarian.
The test system of assay [3] is IGROV1 ovarian.
The test system of assay [4] is BT-549 breast.
In assay [5] the test system is SK-MEL-28 melanoma.
Assay [6] concerns HCC-2998 colon.
In assay [7] the test system is U251 CNS.
Assay [8] deals with CAKI-1 renal.
The subject of assay [9] is TK-10 renal.
Assay [10] concerns CCRF-CEM leukemia.

For orientation: GI50 means the concentration at which growth is held to half of that of the control. The term TGI denotes the concentration at which net growth stops. High values mean less potent growth arrest, low ones more potent growth arrest.

On to `Cc1cc(C)n(-c2nnc3n2N=C(c2ccc(-c4ccccc4)cc2)CS3)n1`, for which the GI50 was 2230 nM in [1]; 3.51 µM in [2]; 4.81 µM in assay [3]; 3.69 µM in [4]; 3330 nM in assay [5]; 5.14 µM in assay [6]. For the same compound, the GI50 in assay [7] is 3.4 µM; in [8], 3050 nM; in assay [9], 2470 nM; in assay [10], 3120 nM. Further, the TGI was 4.77 µM in assay [1]; greater than 100 µM in [2]; greater than 100 µM in assay [3]; greater than 100 µM in [4]; greater than 100 µM in assay [5]; greater than 100 µM in assay [6]. Moreover, the TGI in [7] was greater than 100 µM; in assay [8] it was greater than 100 µM; in assay [9] it was 42.2 µM; in [10], greater than 100 µM.
For the compound `Nc1ccccc1SC1CC(=O)N(c2ccc(Cl)c(Cl)c2)C1=O` (stereo not given), the GI50 is 53100 nM in assay [1]; 20 µM in [2]; 31 µM in [3]; 62.2 µM in assay [4]; 45400 nM in assay [5]; 59.6 µM in [6]. The GI50 in assay [7] is 21.1 µM; in assay [8], 21700 nM; in assay [9], 20000 nM; in assay [10] it was 40600 nM. In addition, the TGI in assay [1] is greater than 100 µM; in [2], 77.8 µM; in assay [3] it was greater than 100 µM; in [4], greater than 100 µM; in assay [5], greater than 100 µM; in [6] it was greater than 100 µM. The concentration for total growth inhibition (TGI) is greater than 100 µM in assay [7], greater than 100 µM in assay [8], 53 µM in assay [9] and greater than 100 µM in [10].
In the case of `CCCCCCCCCCN1CCC(N2CCCCC2)CC1`, the GI50 in assay [1] was 1300 nM; in assay [2], 3.81 µM; in assay [3], 1.66 µM; in assay [4], 3.62 µM; in assay [5], 1780 nM; in assay [6], 2.21 µM. In addition, the GI50 was 1.51 µM in assay [7], 1660 nM in assay [8], 2080 nM in assay [9] and 2080 nM in assay [10]. Also, the TGI in assay [1] is 2.56 µM; in assay [2], 14 µM; in assay [3], 4.52 µM; in assay [4], 16.1 µM; in assay [5] it was 3.41 µM; in assay [6], 5.9 µM. Moreover, the TGI stood at 4.47 µM in [7], 3.94 µM in assay [8], 5.71 µM in assay [9] and 9.48 µM in [10].
Take `S=C1SC2=Nc3ccccc3CN2C2=NCCN12`: the GI50 in assay [1] was 54400 nM; in assay [2] it was greater than 100 µM; in assay [3], 7.88 µM; in assay [4], 99.9 µM; in assay [5], greater than 100000 nM; in assay [6] it was greater than 100 µM. Also, the GI50 was 39.2 µM in [7], greater than 100000 nM in assay [8], greater than 100000 nM in assay [9] and 36700 nM in assay [10]. In addition, the TGI in [1], in assay [2], in assay [3], in assay [4], in assay [5] and in assay [6] was greater than 100 µM in each case. The TGI in [7], in assay [8], in [9] and in assay [10] was greater than 100 µM each time.
On to `C/C(=N\NC(=S)N1CC2CCC(CC2)C1)c1ccccn1`, for which the GI50 is 14.6 nM in [1]; less than 0.0209 µM in [2]; less than 0.01 µM in assay [3]; 0.135 µM in [4]; 767 nM in [5]; 0.171 µM in [6]. In addition, the GI50 in [7] is 0.0473 µM; in assay [8], 270 nM; in assay [9] it was 405 nM; in assay [10], 33.5 nM. Also, the TGI in assay [1] stood at 0.0719 µM; in [2], 1.53 µM; in [3], 2.29 µM; in assay [4], 1.84 µM; in [5], 2.93 µM; in assay [6], 1.8 µM. The TGI worked out at 1.19 µM in [7], 3.89 µM in assay [8] and 1.78 µM in assay [9].
In the case of `O=C(NCc1ccc(S(=O)(=O)c2cc(F)cc(F)c2)cc1)c1ccc2nccn2c1`, the TGI in [1] was greater than 100 µM; in assay [2], greater than 100 µM; in assay [3], greater than 80.4 µM; in [4] it was 12.1 µM; in assay [5] it was 98.1 µM; in assay [6], greater than 100 µM. The TGI in assay [7] is greater than 56.7 µM; in [8], greater than 100 µM; in [9] it was greater than 62.9 µM; in [10] it was greater than 100 µM. Besides, the GI50 in assay [2] was less than 0.01 µM; in assay [3], 12.1 µM; in [4], 0.296 µM; in assay [5], greater than 39800 nM; in [6], 14.6 µM; in [7], 6.01 µM. Also, the GI50 in assay [8] was greater than 43300 nM; in [9], 36300 nM.
`COC(C(=O)[C@@H](O)[C@@H](C)O)[C@@H]1Cc2cc3cc(O[C@H]4C[C@@H](O[C@H]5C[C@@H](O)[C@H](O)C(C)O5)[C@H](O)C(C)O4)c(C)c(O)c3c(O)c2C(=O)[C@H]1O[C@H]1C[C@@H](O[C@H]2C[C@@H](O[C@H]3C[C@@H](O)[C@H](OC)C(C)O3)[C@@H](O)C(C)O2)[C@H](O)C(C)O1` (stereo not given in full): the GI50 in assay [1] is 14.5 nM; in [2] it was 0.0286 µM; in [3], 0.0239 µM; in [4], 0.0219 µM; in assay [5] it was 9.46 nM; in [6] it was 0.0293 µM. The GI50 in [8] is 601 nM; in [10], 42.5 nM. For the same compound, the TGI in assay [1] is 0.0521 µM; in assay [2], greater than 33.3 µM; in assay [3] it was greater than 33.3 µM; in [4], 0.258 µM; in assay [5], 0.0647 µM; in assay [6], 0.114 µM. Also, the TGI in assay [7] is greater than 33.3 µM; in assay [8], greater than 33.3 µM; in assay [9], 0.322 µM; in assay [10] it was greater than 13.1 µM.
Turning to `Cc1ccc(S(=O)(=O)NC(=O)NC2=NC(C)(C)N(c3ccc(Cl)c(Cl)c3)C(N)=N2)cc1`, the TGI in assay [1], in assay [2], in [3], in assay [4], in assay [5] and in assay [6] was greater than 100 µM in each case. Moreover, the TGI in assay [7], in assay [8], in assay [9] and in assay [10] was greater than 100 µM throughout.
